EP4035684A1, “AFFINITY ILLUDOFULVENE CONJUGATES” (AF Chemical LLC, priority 2019, dated 2022)
*1 amine or outer side, *2 acyl side, *3 side chain or, on linkers, in order; H or OH if unused. Where a SMILES comes first, the peptide text is derived from it. The star is where a group is joined. X2 = CC1=C(CCCN*)C2=C(C)C3(CC3)[C@@](C)(O)C(=O)C2=C1; Morpholide = C1CN(*)CCO1; CO = O=C([*:1])[*:2]

Columns and labels:
HT29 (ER Negative) = experiment: Cytotoxicity, 2 hour exposure, cells not expressing the estrogen receptor; format: cell-based; details: Homo sapiens, HT-29, N=3, mean ± SD
Text: (§1) MCF7 over express estrogen alpha-receptors.
(§2) MCF7 cells over express estrogen alpha-receptors.
(§3) The foregoing description of embodiments of the methods, systems, and components of the present invention has been provided for the purposes of illustration and description. It is not intended to be exhaustive or to limit the invention to the precise forms disclosed. Many modifications and variations will be apparent to one of ordinary skill in the relevant arts. For example, steps performed in the embodiments of the invention disclosed can be performed in alternate orders, certain steps can be omitted, and additional steps can be added. The embodiments were chosen and described in order to best explain the principles of the invention and its practical application, thereby enabling others skilled in the art to understand the invention for various embodiments and with various modifications that are suited to the particular used contemplated. Other embodiments are possible and are covered by the invention. Such embodiments will be apparent to persons skilled in the relevant art(s) based on the teachings contained herein. The breadth and scope of the present invention should not be limited by any of the above-described exemplary embodiments, but should be defined only in accordance with the following claims and their equivalents.

MCF7 (ER positive) = experiment: Cytotoxicity, 2 hour exposure, cells expressing the estrogen receptor; format: cell-based; details: Homo sapiens, N=3, mean ± SD
Text: as §1, §2, §3

NCI 60 cell line panel = details: cited from earlier work; for Mean TGI cytostatic / GI50: mean over NCI DTP 60 cell lines; for GI50: read-out: Mean GI50 inhibition
[1] = test system: Prostate PC3 (negative PSA); experiment: Activity of PSA cleavable analogs against PSA negative cell line, 48 hour exposure; format: cell-based; details: N=3, mean ± SD
[2] = test system: Prostate DuPro (trace PSA); experiment: Activity of PSA cleavable analogs against trace PSA cell line, 48 hour exposure; format: cell-based; details: Homo sapiens, N=3, mean ± SD
[3] = test system: Prostate LnCAP (positive PSA); experiment: Activity of PSA cleavable analogs against PSA positive cell line, 48 hour exposure; format: cell-based; details: Homo sapiens, N=3, mean ± SD
[4] = test system: Prostate PC3 (negative PSA); experiment: Activity of PSA cleavable analogs against PSA negative cell line, 48 hour exposure; format: cell-based; details: N=3, mean ± SD; remark: listed apart in the source
[5] = test system: Prostate DuPro (trace PSA); experiment: Activity of PSA cleavable analogs against trace PSA cell line, 48 hour exposure; format: cell-based; details: N=3, mean ± SD
[6] = test system: Prostate LnCAP (positive PSA); experiment: Activity of PSA cleavable analogs against PSA positive cell line, 48 hour exposure; format: cell-based; details: N=3, mean ± SD
MV522 cell line [7] = experiment: cells; format: cell-based; details: read-out: Mean IC50 value (nM) ± SD, N=3 unless otherwise indicated; MV522 Target Cell Line; 2 hr exposure; MV522 target cell line, 2 hr exposure; mean ± SD, N=3 unless otherwise indicated
8392B cell line [8] = experiment: Two hour toxicity: inhibition of DNA synthesis activity, nontarget cell line; format: cell-based; details: read-out: Mean IC50 value (nM) ± SD, N=3 unless otherwise indicated; 8392B Nontarget Cell Line; 2 hr exposure; 8392B nontarget cell line, 2 hr exposure; mean ± SD, N=3 unless otherwise indicated
MV522 cell line [9] = experiment: 48 hour exposure, growth or viability by Trypan Blue Exclusion assay, target cell line; format: cell-based; details: read-out: Mean IC50 value (nM) ± SD, N=3 unless otherwise indicated
8392B cell line [10] = experiment: cells; format: cell-based; details: read-out: Mean IC50 value (nM) ± SD, N=3 unless otherwise indicated, 8392B Nontarget Cell Line, 48 hr exposure, 8392B nontarget cell line, mean ± SD, N=3 unless otherwise indicated

Compound	IC50 (HT29 (ER Negative)) [nM]	IC50 (MCF7 (ER positive)) [nM]	CC50 (NCI 60 cell line panel; human, nci 60 cell lines) [nM]	Mean TGI cytostatic (NCI 60 cell line panel) [nM]	GI50 (NCI 60 cell line panel) [nM]	IC50 [1] [nM]	IC50 [2] [nM]	IC50 [3] [nM]	IC50 [4] [nM]	IC50 [5] [nM]	IC50 [6] [nM]	IC50 (MV522 cell line [7]) [nM]	IC50 (8392B cell line [8]) [nM]	IC50 (MV522 cell line [9]) [nM]	IC50 (8392B cell line [10]) [nM]
CC1=C2C(=CC(C)(C)[C@@H]2O)C(=O)[C@](C)(O)C12CC2 [Illudin M]	520 ± 100	480 ± 130	291	20	3										
CC1=C2C(=C[C@@](C)(CO)[C@@H]2O)C(=O)[C@](C)(O)C12CC2 [Illudin S]				64	10	16 ± 5	11 ± 3	15 ± 3							
CC1=C(CCCNC(=O)[C@H](CC(C)C)NC(=O)[C@H](CCC(N)=O)NC(=O)[C@H](CC(C)C)NC(=O)[C@H](CCCCN)NC(=O)[C@H](CO)NC(=O)[C@H](CO)NC(=O)[C@H](Cc2c[nH]cn2)NC(=O)N2CCOCC2)C2=C(C)C3(CC3)[C@@](C)(O)C(=O)C2=C1 [compound 221] ({Morpholide-CO}-HSSKLQL-X2)									> 21000	13000	800 ± 100	> 21000	> 21000	2500	> 21000
